Results: the CATMoS acute toxicity set (Mansouri et al. 2021)

Experiment: GHS categories as the set defines them, by LD50: 1 up to 5, 2 up to 50, 3 up to 300, 4 up to 2000, 5 above 2000 mg/kg
Settings: rat; in vivo; po

| SMILES | GHS category |
| --- | --- |
| NC(=O)c1ccc(N)cc1 | 5 |
| O=C(O)Cc1nc(-c2ccc(F)cc2)oc1-c1ccsc1 | 5 |
| Cn1nnnc1SCCCS(=O)c1ccccn1 (stereo not drawn) | 4 |
| CSC | 4 |
| CCCCCCCCCCCCSN(C)C(=O)Oc1cccc2c1OC(C)(C)C2 | 3 |
| CN(C)CCOC(=O)C(c1ccccc1)C1(O)CCCC1 (stereo not drawn) | 5 |
| CCOC(=O)C(F)C(C)=O (stereo not drawn) | 3 |
| C[N@+]1(CCNP(=S)(NCC[N@@+]2(C)Cc3c(ccc4c3OCO4)[C@@H]3[C@H]2c2cc4c(cc2C[C@@H]3O)OCO4)NCC[N@@+]2(C)Cc3c(ccc4c3OCO4)[C@@H]3[C@H]2c2cc4c(cc2C[C@@H]3O)OCO4)Cc2c(ccc3c2OCO3)[C@@H]2[C@H]1c1cc3c(cc1C[C@@H]2O)OCO3 | 4 |
| CCOC(=O)C(=O)Nc1cc(OCCOCc2ccccc2)nc(C)n1 | 4 |
| CCCC1CCOC(C)S1 (stereo not drawn) | 5 |
| CC1(C)COC(Cn2cncn2)(c2cc3ccccc3o2)OC1 | 4 |
| CC(=O)CC(=O)Nc1cc(C)c(NC(=O)CC(C)=O)cc1C | 5 |
| CCCCCCCC/C=C\CCCCCCCC(=O)OCC | 5 |
| CCCCCCCCCCCCCCCNCCCCCCCCCCCCCCC | 5 |
| NC(=O)Oc1ccccc1C(=O)Oc1ccccc1Cl | 5 |
| CC/C=C\CC(C)OC(=O)c1ccccc1O (stereo not drawn) | 5 |
| CNC(=O)C(=NNc1ccc([N+](=O)[O-])cc1)C(C)=O | 5 |
| c1ccc(OCC2COC(Cn3cncn3)(c3cc4ccccc4o3)O2)cc1 (stereo not drawn) | 4 |
| NC(=O)N=NC(N)=O | 5 |
| CO/N=C(/C(=O)N[C@@H]1C(=O)N2C(C(=O)O)=C(COC(C)=O)CS[C@H]12)c1csc(N)n1 | 5 |
| Cc1ccc(OC(=O)c2ccccc2OC(N)=O)cc1 | 5 |
| C=C[Si](C)(C)O[Si](O[Si](C)(C)C=C)(O[Si](C)(C)C=C)O[Si](C)(C)C=C | 5 |

| SMILES | GHS category |
| --- | --- |
| CN1C(=O)C(C)(C)Oc2cc(C(=O)C=Cc3ccc(Cl)cc3)ccc21 | 5 |
| CCCCCOC(=O)CCCC | 5 |
| COC(=O)c1ccc(C(=O)Nc2cc(Cl)ccc2Cl)cc1N | 4 |
| COP(=S)(OC)N(C)C(=O)Oc1cccc2c1OC(C)(C)C2 | 3 |
| O=S(=O)(NCl)c1ccccc1 | 4 |
| CC(C)(C)c1cc2c(c(C(C)(C)C)c1)OP(=O)(O)Oc1c(cc(C(C)(C)C)cc1C(C)(C)C)C2 | 5 |
| CCOC(=O)C1=C(C)NC(C[P+](c2ccccc2)(c2ccccc2)c2ccccc2)=C(C(=O)OCC)C1c1cccc([N+](=O)[O-])c1 (stereo not drawn) | 4 |
| COc1cc(C(=O)OCCCNCCC(c2ccccc2)c2ccccc2)cc(OC)c1OC | 5 |
| CCCCCCCCCCCC#N | 5 |
| Nc1ccc(C(=O)c2ccc(Cl)cc2)cc1O | 5 |
| CCCCCCCCCCCC1CC(O)=C(CCCCCC)C(=O)O1 (stereo not drawn) | 5 |
| O=C(Cc1ccccc1)C1C(=O)CC(c2ccccc2)CC1=O (stereo not drawn) | 5 |
| Cc1nc(Cl)cc(Nc2ncc(C(=O)Nc3c(C)cccc3Cl)s2)n1 | 5 |
| COC(=O)c1nccnc1N | 5 |
| O=C(NC(CCc1ccc2c(c1)OCO2)CCc1ccc2c(c1)OCO2)c1cc2ccccc2o1 | 5 |
| CC1CC(OC(=O)C(C)(C)Oc2ccc(Cl)cc2)CC(C)(C)C1 (stereo not drawn) | 5 |
| O=C=Nc1ccc(Br)cc1 | 5 |
| C[N+]1(CC(O)COc2cccc3c2CCC(=O)N3)CCC(c2ccccc2)CC1 (stereo not drawn) | 4 |
| CC1=CC(=NNc2ccc(N)cc2)C=C(C)C1=O | 5 |
| CC(C)C[C@H]1C(=O)N2CCC[C@H]2[C@]2(O)O[C@](NC(=O)[C@@H]3C=C4c5cccc6[nH]c(Br)c(c56)C[C@H]4N(C)C3)(C(C)C)C(=O)N12 | 5 |
| CCCC(=O)O[C@H]1[C@H](C)O[C@@H](O[C@H]2[C@H](N(C)C)[C@@H](O)[C@H](O[C@H]3[C@@H](CC=O)C[C@@H](C)[C@@H](O)/C=C/C=C/C[C@@H](C)OC(=O)C[C@@H](O)[C@@H]3OC)O[C@@H]2C)C[C@@]1(C)OC(=O)CC | 5 |
